We go through 43 sequences from the supplement of paper PMC11208160.

The data set in a line: recombinant barcode read abundance after kanamycin selection (control-corrected) (log10(CPM+1)); higher = more efficient recombination; sequences stand for … in AGTGCAGAGAAAATCGGCCAGTTTTCTCTGCCTGCAGTCCGCATGCCGT…ATTTATGCAGCGGACTGCCTTTCTCCCAAAGTGATAAACCGGACAGTATCATGGACCGGTTTTCCCGGTAATCCGTATTTGCAAGGTTGGTTTCACT; site = the 11-nt target. Summed up: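 The screen was pooled in E. coli and paired targets with IS621 bridge RNA target-binding loops. Recombination efficiency is taken from barcode counts per million at recombinant junctions, averaged and adjusted against the control. Values, in the form log10(CPM+1), come from duplicate plating on chloramphenicol/ampicillin LB agar or on chloramphenicol/ampicillin/kanamycin with 0.1 mM IPTG.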
For the sequence “ATGCTTTCTTGGGTTCTAACCTGTTGCCTGT [ATGCTTTCTAG_LTGcore_CT_RTGcore_AC] (site ATGCTTTCTAG) (LTG core: CT, RTG core: AC)”, the “recombinant barcode read abundance (log10)” value turned out to be 0.101.

“ATGCTTTCTTGGGTTCTAACCTGTTGCCTTC [ATGCTTTCTAG_LTGcore_CT_RTGcore_GA] (site ATGCTTTCTAG) (LTG core: CT, RTG core: GA)”: the “recombinant barcode read abundance (log10)” value is 0.0663. As for “ATGCTTTGGTGGGTTCTAACCTGTTGCCTAG [ATGCTTTCTAG_LTGcore_GG_RTGcore_CT] (site ATGCTTTCTAG) (LTG core: GG, RTG core: CT)”, the figure is 0.179; as for “ATGCTTTGTTGGGTTCTAACCTGTTGCCTAC [ATGCTTTCTAG_LTGcore_GT_RTGcore_GT] (site ATGCTTTCTAG) (LTG core: GT, RTG core: GT)”, 0.302; as for “ATGCTTTGTTGGGTTCTAACCTGTTGCCTAG [ATGCTTTCTAG_LTGcore_GT_RTGcore_CT] (site ATGCTTTCTAG) (LTG core: GT, RTG core: CT)”, 0.0408. As for “ATGTCCCACTGGGTTCTAACCTGTTGCTCAG [ATGTCCCCTGA_LTGcore_AC_RTGcore_CT] (site ATGTCCCCTGA) (LTG core: AC, RTG core: CT)”, the figure is 0.172. As to “ATGTCCCCATGGGTTCTAACCTGTTGCTCAG [ATGTCCCCTGA_LTGcore_CA_RTGcore_CT] (site ATGTCCCCTGA) (LTG core: CA, RTG core: CT)”, the “recombinant barcode read abundance (log10)” value was determined as 0.527. As for “ATGTCCCCTTGGGTTCTAACCTGTTGCTCTA [ATGTCCCCTGA_LTGcore_CT_RTGcore_TA] (site ATGTCCCCTGA) (LTG core: CT, RTG core: TA)”, the figure is 0.107; as for “ATGTCCCCTTGGGTTCTAACCTGTTGCTCTC [ATGTCCCCTGA_LTGcore_CT_RTGcore_GA] (site ATGTCCCCTGA) (LTG core: CT, RTG core: GA)”, 0.0163.

“ATGTCCCGCTGGGTTCTAACCTGTTGCTCGC [ATGTCCCCTGA_LTGcore_GC_RTGcore_GC] (site ATGTCCCCTGA) (LTG core: GC, RTG core: GC)”: the “recombinant barcode read abundance (log10)” value came out at 0.103. Regarding “ATGTCCCTATGGGTTCTAACCTGTTGCTCAG [ATGTCCCCTGA_LTGcore_TA_RTGcore_CT] (site ATGTCCCCTGA) (LTG core: TA, RTG core: CT)”, the “recombinant barcode read abundance (log10)” value stood at 0.0463. In the case of “ATGTCCCTATGGGTTCTAACCTGTTGCTCTA [ATGTCCCCTGA_LTGcore_TA_RTGcore_TA] (site ATGTCCCCTGA) (LTG core: TA, RTG core: TA)”, the “recombinant barcode read abundance (log10)” value was 0.208. As for “ATGTCCCTTTGGGTTCTAACCTGTTGCTCAA [ATGTCCCCTGA_LTGcore_TT_RTGcore_TT] (site ATGTCCCCTGA) (LTG core: TT, RTG core: TT)”, the figure is 0.0472; as for “CATATTAAGTGGGTTCTAACCTGTTGCCTCT [CATATTACTAG_LTGcore_AG_RTGcore_AG] (site CATATTACTAG) (LTG core: AG, RTG core: AG)”, 0.0293.

As to “CATATTAATTGGGTTCTAACCTGTTGCCTAG [CATATTACTAG_LTGcore_AT_RTGcore_CT] (site CATATTACTAG) (LTG core: AT, RTG core: CT)”, the “recombinant barcode read abundance (log10)” value is 0.195. Turning to “CATATTACATGGGTTCTAACCTGTTGCCTAG [CATATTACTAG_LTGcore_CA_RTGcore_CT] (site CATATTACTAG) (LTG core: CA, RTG core: CT)”, the “recombinant barcode read abundance (log10)” value was found to be 0.126. Consider “CATATTACTTGGGTTCTAACCTGTTGCCTAC [CATATTACTAG_LTGcore_CT_RTGcore_GT] (site CATATTACTAG) (LTG core: CT, RTG core: GT)”, for which the “recombinant barcode read abundance (log10)” value stood at 1.01.

Regarding “CATATTAGATGGGTTCTAACCTGTTGCCTTC [CATATTACTAG_LTGcore_GA_RTGcore_GA] (site CATATTACTAG) (LTG core: GA, RTG core: GA)”, the “recombinant barcode read abundance (log10)” value came to 0.0675. As for “CATATTAGCTGGGTTCTAACCTGTTGCCTAG [CATATTACTAG_LTGcore_GC_RTGcore_CT] (site CATATTACTAG) (LTG core: GC, RTG core: CT)”, the figure is 0.73; as for “CATATTAGGTGGGTTCTAACCTGTTGCCTAG [CATATTACTAG_LTGcore_GG_RTGcore_CT] (site CATATTACTAG) (LTG core: GG, RTG core: CT)”, 0.182. As for “CATATTATATGGGTTCTAACCTGTTGCCTTA [CATATTACTAG_LTGcore_TA_RTGcore_TA] (site CATATTACTAG) (LTG core: TA, RTG core: TA)”, the figure is 0.00689; as for “CGAGCCCACTGGGTTCTAACCTGTTGCTGGT [CGAGCCCCTCA_LTGcore_AC_RTGcore_AC] (site CGAGCCCCTCA) (LTG core: AC, RTG core: AC)”, 0.0238. As for “CGAGCCCCGTGGGTTCTAACCTGTTGCTGAG [CGAGCCCCTCA_LTGcore_CG_RTGcore_CT] (site CGAGCCCCTCA) (LTG core: CG, RTG core: CT)”, the figure is 0.587; as for “CGAGCCCCTTGGGTTCTAACCTGTTGCTGAC [CGAGCCCCTCA_LTGcore_CT_RTGcore_GT] (site CGAGCCCCTCA) (LTG core: CT, RTG core: GT)”, 0.19. Take “CGAGCCCCTTGGGTTCTAACCTGTTGCTGCA [CGAGCCCCTCA_LTGcore_CT_RTGcore_TG] (site CGAGCCCCTCA) (LTG core: CT, RTG core: TG)”: the “recombinant barcode read abundance (log10)” value came to 0.0283.

As to “CGAGCCCCTTGGGTTCTAACCTGTTGCTGGC [CGAGCCCCTCA_LTGcore_CT_RTGcore_GC] (site CGAGCCCCTCA) (LTG core: CT, RTG core: GC)”, the “recombinant barcode read abundance (log10)” value is 0.405. With “CGAGCCCGCTGGGTTCTAACCTGTTGCTGAG [CGAGCCCCTCA_LTGcore_GC_RTGcore_CT] (site CGAGCCCCTCA) (LTG core: GC, RTG core: CT)”, the “recombinant barcode read abundance (log10)” value was 0.195. Consider “CGAGCCCGCTGGGTTCTAACCTGTTGCTGGC [CGAGCCCCTCA_LTGcore_GC_RTGcore_GC] (site CGAGCCCCTCA) (LTG core: GC, RTG core: GC)”, for which the “recombinant barcode read abundance (log10)” value amounted to 0.0793. As for “CGAGCCCGTTGGGTTCTAACCTGTTGCTGAG [CGAGCCCCTCA_LTGcore_GT_RTGcore_CT] (site CGAGCCCCTCA) (LTG core: GT, RTG core: CT)”, the figure is 0.102.

For “CGCGCCCAATGGGTTCTAACCTGTTGCGGTT [CGCGCCCCTCC_LTGcore_AA_RTGcore_AA] (site CGCGCCCCTCC) (LTG core: AA, RTG core: AA)”, the “recombinant barcode read abundance (log10)” value is 0.134. As for “CGCGCCCACTGGGTTCTAACCTGTTGCGGAG [CGCGCCCCTCC_LTGcore_AC_RTGcore_CT] (site CGCGCCCCTCC) (LTG core: AC, RTG core: CT)”, the figure is 0.0345. As for “CGCGCCCACTGGGTTCTAACCTGTTGCGGGT [CGCGCCCCTCC_LTGcore_AC_RTGcore_AC] (site CGCGCCCCTCC) (LTG core: AC, RTG core: AC)”, the figure is 0.0786; as for “CGCGCCCCCTGGGTTCTAACCTGTTGCGGAG [CGCGCCCCTCC_LTGcore_CC_RTGcore_CT] (site CGCGCCCCTCC) (LTG core: CC, RTG core: CT)”, 0.158. As for “CGCGCCCCTTGGGTTCTAACCTGTTGCGGAC [CGCGCCCCTCC_LTGcore_CT_RTGcore_GT] (site CGCGCCCCTCC) (LTG core: CT, RTG core: GT)”, the figure is 0.0615. As to “CGCGCCCCTTGGGTTCTAACCTGTTGCGGAT [CGCGCCCCTCC_LTGcore_CT_RTGcore_AT] (site CGCGCCCCTCC) (LTG core: CT, RTG core: AT)”, the “recombinant barcode read abundance (log10)” value came to 0.243. Turning to “CGCGCCCCTTGGGTTCTAACCTGTTGCGGCG [CGCGCCCCTCC_LTGcore_CT_RTGcore_CG] (site CGCGCCCCTCC) (LTG core: CT, RTG core: CG)”, the “recombinant barcode read abundance (log10)” value was found to be 0.0742. As for “CGCGCCCCTTGGGTTCTAACCTGTTGCGGGT [CGCGCCCCTCC_LTGcore_CT_RTGcore_AC] (site CGCGCCCCTCC) (LTG core: CT, RTG core: AC)”, the figure is 0.266. With “CGCGCCCCTTGGGTTCTAACCTGTTGCGGTT [CGCGCCCCTCC_LTGcore_CT_RTGcore_AA] (site CGCGCCCCTCC) (LTG core: CT, RTG core: AA)”, the “recombinant barcode read abundance (log10)” value was 0.146. As for “CGCGCCCGATGGGTTCTAACCTGTTGCGGAG [CGCGCCCCTCC_LTGcore_GA_RTGcore_CT] (site CGCGCCCCTCC) (LTG core: GA, RTG core: CT)”, the figure is 0.217; as for “CGCGCCCGCTGGGTTCTAACCTGTTGCGGGC [CGCGCCCCTCC_LTGcore_GC_RTGcore_GC] (site CGCGCCCCTCC) (LTG core: GC, RTG core: GC)”, 0.552; as for “CGCGCCCGTTGGGTTCTAACCTGTTGCGGAG [CGCGCCCCTCC_LTGcore_GT_RTGcore_CT] (site CGCGCCCCTCC) (LTG core: GT, RTG core: CT)”, 0.062. Take “CGGTCCCCATGGGTTCTAACCTGTTGCCATG [CGGTCCCCTTG_LTGcore_CA_RTGcore_CA] (site CGGTCCCCTTG) (LTG core: CA, RTG core: CA)”: the “recombinant barcode read abundance (log10)” value worked out at 0.185. As for “CGGTCCCCGTGGGTTCTAACCTGTTGCCACG [CGGTCCCCTTG_LTGcore_CG_RTGcore_CG] (site CGGTCCCCTTG) (LTG core: CG, RTG core: CG)”, the figure is 0.342.
